This is an account of results in paper PMC8160210, “Single tryptophan Y160W mutant of homooligomeric E. coli purine nucleoside phosphorylase implies that dimers forming the hexamer are functionally not equivalent” (Scientific Reports, 2021).

The target in experiment [1] is T1, Y160W PNP mutant (Escherichia coli, UniProt P0ABP8, Y161W). Nature of the experiment: Inhibition of m^7Guo phosphorolysis. Details: made in house; host or cells: E. coli DH5α-T1. Type of experiment: biochemical, E. coli. The method, then: (§1) All activity measurements and kinetic studies were done in 50 mM Hepes/HCl buffer pH 7.0 at 25 °C as previously described for the WT E. coli PNP and its active-site mutants, using direct spectrophotometric assay for adenosine, guanosine and 7-methylguanosine as substrates, and a coupled assay with xanthine oxidase in the case of inosine[13],[28],[29]. Activity measurements were performed for each protein sample, before and after each experiment as a control of the state of the protein.
T1 sequence (P0ABP8 2-239 Y161W): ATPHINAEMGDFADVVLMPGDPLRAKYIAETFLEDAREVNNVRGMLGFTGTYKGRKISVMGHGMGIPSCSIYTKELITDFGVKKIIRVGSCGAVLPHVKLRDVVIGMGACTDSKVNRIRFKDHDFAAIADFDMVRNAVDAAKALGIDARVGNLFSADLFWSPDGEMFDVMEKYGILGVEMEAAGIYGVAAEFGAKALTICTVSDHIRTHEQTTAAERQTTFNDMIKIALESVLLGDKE
(§2) To determine inhibition model and inhibition constant for formycin A, rate of phosphorolysis with m^7Guo as a variable substrate, at constant, 50 mM, phosphate concentration, was registered in the absence of the inhibitor and in the presence of two different concentrations of formycin. A global fitting to the whole data set was performed, using various models (competitive, uncompetitive, noncompetitive, mixed). As expected for the substrate analogue, competitive model described the data sufficiently well:3 v0c0=Vmax1c0/c0+KM1+ci/Ki where ci is inhibitor concentration. Kinetic data were analysed using the GraphPad Prism program (Intuitive Software for Science, San Diego, CA, USA).

Experiment [2] concerns the target T2, WT E. coli PNP (Escherichia coli, UniProt P0ABP8).
T2 construct: made in house
T2 sequence (P0ABP8 2-239 limits assumed): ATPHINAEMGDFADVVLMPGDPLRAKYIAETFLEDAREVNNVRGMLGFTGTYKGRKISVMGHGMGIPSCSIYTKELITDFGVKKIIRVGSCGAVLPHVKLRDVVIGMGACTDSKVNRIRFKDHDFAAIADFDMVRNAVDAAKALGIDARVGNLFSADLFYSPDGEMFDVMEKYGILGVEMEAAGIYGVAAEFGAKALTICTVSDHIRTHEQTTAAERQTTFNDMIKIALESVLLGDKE
Description: Inhibition of m^7Guo phosphorolysis. Type of experiment: biochemical. The following applies: competitive inhibition Eq. (3), m^7Guo as variable substrate, 50 mM phosphate, pH 7.0, 25 °C. The method, then:
as §1, §2

In experiment [3] the target is T1, Y160W PNP mutant. Nature of the experiment: Thermophoretic (MST) titrations with phosphate. Details: made in house; host or cells: E. coli DH5α-T1; species or system E. coli. The conditions noted are these: two-binding-site model, 25 °C. The method, then: (§3) Measurements were performed with Monolith NT115 (NanoTemper). Enzyme was labelled with NT647 fluorescent dye (NanoTemper) according to the protocol provided by the manufacturer. Labelled proteins show fluorescence excitation and emission maxima of approximately 650 and 670 nm, respectively. The series of titrations were performed at a constant protein concentration. Both proteins (WT and mutant), and ligands were dissolved in 50 mM Tris/HCl pH 7.6 buffer, measurements were performed at 25 °C. […] In the pre-experiments, it was carefully checked for both proteins, WT and Y160W mutant whether any sign of aggregation or inactivation occurs, and if mutant behaviour is similar to that of the WT enzyme. […]
(§4) For experiments of the binary complex formation with phosphate, curves were measured at four different powers of the heating laser. Two to five titrations at each heating power were measured, and curves were averaged for a particular heating power. […] This is an area inaccessible in fluorescence titration due to the quenching of the protein fluorescence at such a high ionic strength of the solution. […]
(§5) Titration series were analysed globally, always starting from the simplest, one-binding-site model. […] For all tested models the Akaike information criterion[23] was also calculated. […]

The target of experiment [4] is T2, WT E. coli PNP. Description: Thermophoretic (MST) titrations with phosphate. The following applies: two-binding-site model, 25 °C. The method, then:
as §3, §4, §5

Setting [5] is: 50 mM Tris/HCl pH 7.6, read-out: Kd1 ± SD.
The mark [6] stands for this setting: 50 mM Tris/HCl pH 7.6, read-out: Kd3 ± SD.

Like-named read-outs stand apart in the source and are kept apart here.

Broadly, the Ki is the equilibrium dissociation constant of an inhibitor or competing ligand from its target. Turning to `Nc1ncnc2c([C@@H]3O[C@H](CO)[C@@H](O)[C@H]3O)[nH]nc12` [FA, Formycin A], the Ki in experiment [1] turned out to be 42 ± 4 µM; in experiment [2] it was 5.3 ± 0.4 µM.
In the case of `O=P(O)(O)O` [Pi, Orthophosphate], the Kd in experiment [3] (setting [5]) came out at 3.2 µM; in experiment [3] (setting [6]), 1280 µM; in experiment [4] (setting [5]), 7 µM; in experiment [4] (setting [6]) it was 1640 µM.
